Assay: Solubility of Mesotrione in solvents
Format: physicochemical
Source text: Mesotrione has been introduced in both Rhodiasolv® Li-Tec 2v and Rhodiasolv® Polarclean. Mesotrione is not soluble in Rhodiasolv® Li-Tec 2v and is soluble in (for instance at concentration of 30 g/L) Rhodiasolv® Polarclean.

CS(=O)(=O)c1ccc(C(=O)C2C(=O)CCCC2=O)c([N+](=O)[O-])c1 [Mesotrione, 2-(4-methylsulfonyl-2-nitrobenzoyl)-cyclohexane-1,3-dione]
Solubility in Rhodiasolv® Li-Tec 2v (solvent Rhodiasolv® Li-Tec 2v): not soluble
Solubility in Rhodiasolv® Polarclean (solvent Rhodiasolv® Polarclean, for instance at concentration of 30 g/L): soluble

— patent US12484579B2, “Agrochemical composition and methods of preparing and using the same” (priority 2018, dated 2025)
